The source of these data is ChEMBL document CHEMBL1137276, “Discovery of potent, selective, and orally bioavailable oxadiazole-based dipeptidyl peptidase IV inhibitors” (Bioorg Med Chem Lett, 2006).

pIC50: −log10 of the molar value.

Data set [1] can be described thus: Oral bioavailability in rat at 1 mg/kg, iv and 2 mg/kg, po. The format is ADME, organism-based. As to conditions: in vivo.
For the next data set, the target named is Dipeptidyl peptidase 8 (Homo sapiens, UniProt Q6V1X1). Description: Inhibition of DPP8.
Chain of Dipeptidyl peptidase 8 (Q6V1X1 whole entry): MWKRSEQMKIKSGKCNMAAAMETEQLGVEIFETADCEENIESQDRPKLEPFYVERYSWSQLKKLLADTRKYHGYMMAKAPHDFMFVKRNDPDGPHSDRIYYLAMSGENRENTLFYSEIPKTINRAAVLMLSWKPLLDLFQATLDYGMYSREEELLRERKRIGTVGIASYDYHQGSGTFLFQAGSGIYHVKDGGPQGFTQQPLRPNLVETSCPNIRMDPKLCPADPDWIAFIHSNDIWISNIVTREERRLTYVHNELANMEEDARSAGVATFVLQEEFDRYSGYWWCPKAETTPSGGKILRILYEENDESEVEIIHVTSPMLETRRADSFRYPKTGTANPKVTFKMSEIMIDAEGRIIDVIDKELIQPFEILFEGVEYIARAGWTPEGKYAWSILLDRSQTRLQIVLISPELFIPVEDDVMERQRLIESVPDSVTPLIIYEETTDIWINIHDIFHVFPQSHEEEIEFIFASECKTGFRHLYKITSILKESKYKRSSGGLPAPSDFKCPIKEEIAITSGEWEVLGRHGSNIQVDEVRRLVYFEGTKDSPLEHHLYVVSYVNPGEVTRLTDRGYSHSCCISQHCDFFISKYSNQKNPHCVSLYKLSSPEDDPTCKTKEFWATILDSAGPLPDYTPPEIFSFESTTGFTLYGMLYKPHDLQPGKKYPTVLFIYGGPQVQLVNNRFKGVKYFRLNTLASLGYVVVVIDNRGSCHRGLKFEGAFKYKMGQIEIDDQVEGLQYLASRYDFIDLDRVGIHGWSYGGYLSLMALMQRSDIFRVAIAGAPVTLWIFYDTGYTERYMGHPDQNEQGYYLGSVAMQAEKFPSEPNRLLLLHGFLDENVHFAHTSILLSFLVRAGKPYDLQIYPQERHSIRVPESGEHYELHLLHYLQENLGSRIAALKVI
For another data set, the target named is Dipeptidyl peptidase 2 (Homo sapiens, UniProt Q9UHL4). Description: Inhibition of QPP.
A short description of data set [2]: Plasma clearance in rat at 1 mg/kg, iv and 2 mg/kg, po. The format is ADME, organism-based.
In the next data set the target is Dipeptidyl peptidase 4 (Homo sapiens, UniProt P27487). As to the kind of experiment: Inhibition of DPP4.
Chain of Dipeptidyl peptidase 4 (P27487 whole entry): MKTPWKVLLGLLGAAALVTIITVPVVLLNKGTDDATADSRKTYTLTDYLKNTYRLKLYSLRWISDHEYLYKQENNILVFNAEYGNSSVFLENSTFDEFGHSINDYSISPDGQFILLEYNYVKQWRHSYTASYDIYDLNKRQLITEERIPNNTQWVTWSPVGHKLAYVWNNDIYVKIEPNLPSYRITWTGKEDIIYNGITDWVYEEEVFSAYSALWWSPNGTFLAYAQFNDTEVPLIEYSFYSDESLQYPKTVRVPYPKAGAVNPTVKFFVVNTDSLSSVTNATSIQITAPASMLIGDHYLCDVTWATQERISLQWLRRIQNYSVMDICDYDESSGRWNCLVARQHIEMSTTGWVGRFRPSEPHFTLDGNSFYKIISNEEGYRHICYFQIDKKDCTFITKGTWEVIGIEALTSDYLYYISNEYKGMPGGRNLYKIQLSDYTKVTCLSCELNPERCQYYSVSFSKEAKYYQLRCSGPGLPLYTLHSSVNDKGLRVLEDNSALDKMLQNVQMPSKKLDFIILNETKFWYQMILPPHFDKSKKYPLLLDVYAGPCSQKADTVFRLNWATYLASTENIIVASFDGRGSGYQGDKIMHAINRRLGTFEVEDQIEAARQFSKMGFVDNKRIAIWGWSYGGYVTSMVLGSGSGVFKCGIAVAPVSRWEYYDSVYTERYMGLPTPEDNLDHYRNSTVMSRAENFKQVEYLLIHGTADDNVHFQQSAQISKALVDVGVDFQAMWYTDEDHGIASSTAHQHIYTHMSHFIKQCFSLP
The target of a further data set is Dipeptidyl peptidase 9 (Homo sapiens, UniProt Q86TI2). As to the kind of experiment: Inhibition of DPP9.
Chain of Dipeptidyl peptidase 9 (Q86TI2 whole entry): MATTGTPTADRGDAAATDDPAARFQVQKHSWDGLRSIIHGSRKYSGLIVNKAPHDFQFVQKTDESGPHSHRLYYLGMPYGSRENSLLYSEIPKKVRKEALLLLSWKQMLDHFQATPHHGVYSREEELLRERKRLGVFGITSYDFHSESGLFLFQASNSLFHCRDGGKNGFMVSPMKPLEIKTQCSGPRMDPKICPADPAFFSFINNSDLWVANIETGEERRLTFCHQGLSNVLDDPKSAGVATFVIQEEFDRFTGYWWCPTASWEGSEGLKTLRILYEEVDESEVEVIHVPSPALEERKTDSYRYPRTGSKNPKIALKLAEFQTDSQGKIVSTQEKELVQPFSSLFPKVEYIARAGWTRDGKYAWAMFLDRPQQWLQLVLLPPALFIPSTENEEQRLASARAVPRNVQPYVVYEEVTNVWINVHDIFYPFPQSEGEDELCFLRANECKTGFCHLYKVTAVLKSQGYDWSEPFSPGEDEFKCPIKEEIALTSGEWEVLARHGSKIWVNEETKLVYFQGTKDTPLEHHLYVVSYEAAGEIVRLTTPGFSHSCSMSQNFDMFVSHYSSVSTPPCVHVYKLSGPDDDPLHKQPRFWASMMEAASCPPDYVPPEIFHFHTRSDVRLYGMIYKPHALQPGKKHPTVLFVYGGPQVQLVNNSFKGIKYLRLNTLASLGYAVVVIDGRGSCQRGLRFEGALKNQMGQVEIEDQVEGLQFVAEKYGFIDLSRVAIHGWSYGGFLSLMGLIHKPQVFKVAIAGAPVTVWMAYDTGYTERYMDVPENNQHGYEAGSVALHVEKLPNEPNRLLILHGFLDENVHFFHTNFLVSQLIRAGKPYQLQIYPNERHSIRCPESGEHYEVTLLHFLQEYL
Data set [3] can be described thus: Half life in rat at 1 mg/kg, iv and 2 mg/kg, po. As to conditions: in vivo. The format is ADME, organism-based.
Data set [4] addresses Voltage-gated inwardly rectifying potassium channel KCNH2 (Homo sapiens, UniProt Q12809). As to the kind of experiment: Inhibition of hERG potassium channel. The format is toxicity. For orientation: The hERG channel carries a current that helps repolarise heart muscle cells.
For another data set, the species on record is Homo sapiens. Description: Selectivity for DPP4 over QPP.
Data set [5] is described as follows: Oral bioavailability in dog. The format is ADME, organism-based, Canis lupus familiaris. As to conditions: in vivo.
The nature of data set [6]: Half life in dog. In kind it is ADME, organism-based, Canis lupus familiaris. As to conditions: in vivo.

Chain of Voltage-gated inwardly rectifying potassium channel KCNH2 (Q12809 whole entry): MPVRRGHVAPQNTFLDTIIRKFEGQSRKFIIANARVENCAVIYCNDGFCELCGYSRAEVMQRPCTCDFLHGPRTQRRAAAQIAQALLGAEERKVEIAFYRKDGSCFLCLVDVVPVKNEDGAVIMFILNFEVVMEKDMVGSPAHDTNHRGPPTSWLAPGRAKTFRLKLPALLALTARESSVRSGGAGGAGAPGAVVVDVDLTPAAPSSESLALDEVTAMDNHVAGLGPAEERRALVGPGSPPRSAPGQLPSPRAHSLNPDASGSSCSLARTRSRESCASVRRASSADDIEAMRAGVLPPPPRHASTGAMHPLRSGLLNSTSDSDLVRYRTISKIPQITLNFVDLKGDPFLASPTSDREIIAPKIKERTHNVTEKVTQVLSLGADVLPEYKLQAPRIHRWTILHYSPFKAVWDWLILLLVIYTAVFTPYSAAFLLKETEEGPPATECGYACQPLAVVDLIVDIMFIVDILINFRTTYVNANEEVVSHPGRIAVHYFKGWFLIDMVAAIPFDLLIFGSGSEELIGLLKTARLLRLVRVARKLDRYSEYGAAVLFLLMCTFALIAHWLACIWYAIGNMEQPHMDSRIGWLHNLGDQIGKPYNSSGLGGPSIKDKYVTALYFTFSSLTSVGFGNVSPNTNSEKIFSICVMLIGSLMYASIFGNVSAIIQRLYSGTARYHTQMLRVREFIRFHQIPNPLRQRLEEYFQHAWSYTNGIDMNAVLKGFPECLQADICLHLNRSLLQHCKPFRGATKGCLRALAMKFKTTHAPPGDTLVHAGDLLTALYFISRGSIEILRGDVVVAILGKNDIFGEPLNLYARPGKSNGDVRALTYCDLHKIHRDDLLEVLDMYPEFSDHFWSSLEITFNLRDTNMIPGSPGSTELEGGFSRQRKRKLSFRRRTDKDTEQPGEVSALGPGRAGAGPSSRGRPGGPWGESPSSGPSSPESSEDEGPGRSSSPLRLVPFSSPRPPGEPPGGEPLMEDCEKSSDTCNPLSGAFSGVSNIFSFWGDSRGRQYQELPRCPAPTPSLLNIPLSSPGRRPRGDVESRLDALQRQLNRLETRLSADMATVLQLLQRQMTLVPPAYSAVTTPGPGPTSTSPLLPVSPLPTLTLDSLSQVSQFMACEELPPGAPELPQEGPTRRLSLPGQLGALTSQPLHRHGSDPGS

One may read the bioavailability as the share of a dose that reaches the circulation, judged against a reference dose that is usually intravenous. A higher bioavailability goes with much systemic uptake. What is called pIC50 is the IC50 on a negative log10 scale, so that one unit is a factor of ten. For orientation: half-life means the time needed for the level to fall by half in the phase considered. `CS(=O)(=O)c1ccc(-c2noc([C@@H](CC3CC3)[C@H](N)C(=O)N3CC[C@H](F)C3)n2)cc1.O=C(O)C(F)(F)F` registered a bioavailability in data set [1] of 49%. For the same compound, the pIC50 is under 4.00 at Dipeptidyl peptidase 8, 4.69 at Dipeptidyl peptidase 2, 7.28 against Dipeptidyl peptidase 4 and under 4.00 at Dipeptidyl peptidase 9. Also, the clearance in [2] amounted to 11.2 mL/min/kg. This compound also showed a half-life in data set [3] of 1.8 h.

For the compound `C[C@H](c1nc(-c2cccc(C(F)(F)F)c2)no1)[C@H](N)C(=O)N1CCCC1`, the pIC50 on Dipeptidyl peptidase 8 is under 4.00; at Dipeptidyl peptidase 2, 5.37; on Dipeptidyl peptidase 4, 4.81; on Dipeptidyl peptidase 9 it was under 4.00.

With `C[C@H](c1nc(-c2ccc(Cl)cc2Cl)no1)[C@H](N)C(=O)N1CCCC1.O=C(O)C(F)(F)F`, the results for the pIC50 (in data set [4]; at Dipeptidyl peptidase 8; on Dipeptidyl peptidase 9) were 4.44, under 4.00 and under 4.00, respectively. Besides, the bioavailability in data set [1] is 35%. Moreover, the clearance in data set [2] was determined as 13.8 mL/min/kg. In data set [3], this compound had a half-life of 2.71 h.

As for `C[C@H](c1nc(-c2ccc(NS(C)(=O)=O)cc2Cl)no1)[C@H](N)C(=O)N1CCC(F)(F)C1`, the pIC50 is under 4.00 on Dipeptidyl peptidase 8, 6.80 against Dipeptidyl peptidase 2, 7.72 against Dipeptidyl peptidase 4 and under 4.00 on Dipeptidyl peptidase 9.

`C[C@H](c1nc(-c2ccc(S(C)(=O)=O)cc2Cl)no1)[C@H](N)C(=O)N1CC[C@H](F)C1`: the pIC50 against Dipeptidyl peptidase 8 and against Dipeptidyl peptidase 9 was under 4.00 in each case.

As for `C[C@H](c1nc(-c2ccc(NS(C)(=O)=O)cc2Cl)no1)[C@H](N)C(=O)N1CCCC1`, the pIC50 was under 4.00 on Dipeptidyl peptidase 8, 5.85 against Dipeptidyl peptidase 2, 8.10 on Dipeptidyl peptidase 4 and under 4.00 at Dipeptidyl peptidase 9.

With `CC(C)C[C@H](c1nc(-c2ccc(S(C)(=O)=O)cc2Cl)no1)[C@H](N)C(=O)N1CC[C@H](F)C1`, the pIC50 was under 4.00 against Dipeptidyl peptidase 8, 5.43 against Dipeptidyl peptidase 2, 7.89 against Dipeptidyl peptidase 4 and under 4.00 against Dipeptidyl peptidase 9.

Consider `C[C@H](c1nc(-c2ccccc2C(F)(F)F)no1)[C@H](N)C(=O)N1CCCC1`, for which the negative-log IC50 (pIC50) was under 4.00 against Dipeptidyl peptidase 8, 5.74 against Dipeptidyl peptidase 2, 5.32 against Dipeptidyl peptidase 4 and under 4.00 against Dipeptidyl peptidase 9.

For `C[C@H](c1nc(-c2ccc(S(N)(=O)=O)cc2)no1)[C@H](N)C(=O)N1CCCC1`, the pIC50 against Dipeptidyl peptidase 8 was under 4.00; on Dipeptidyl peptidase 2 it was 4.57; against Dipeptidyl peptidase 4, 6.72; against Dipeptidyl peptidase 9, under 4.00.

`C[C@H](c1nc(-c2ccc(Cl)cc2Cl)co1)[C@H](N)C(=O)N1CCCC1`: the pIC50 against Dipeptidyl peptidase 8 was under 4.00; on Dipeptidyl peptidase 2, 5.98; on Dipeptidyl peptidase 4, 5.74; on Dipeptidyl peptidase 9 it was under 4.00.

`C[C@H](c1nc(-c2ccc(F)cc2Cl)no1)[C@H](N)C(=O)N1CCCC1`: the pIC50 is under 4.00 against Dipeptidyl peptidase 8, 5.52 against Dipeptidyl peptidase 2, 6.08 at Dipeptidyl peptidase 4 and under 4.00 on Dipeptidyl peptidase 9.

On to `C[C@H](c1nc(-c2ccccc2F)no1)[C@H](N)C(=O)N1CCCC1`, for which the pIC50 on Dipeptidyl peptidase 8 was under 4.00; on Dipeptidyl peptidase 2 it was 5.35; on Dipeptidyl peptidase 4 it was 5.32; at Dipeptidyl peptidase 9, under 4.00.

In the case of `C[C@H](c1nc(-c2ccc(S(C)(=O)=O)cc2F)no1)[C@H](N)C(=O)N1CCCC1`, the pIC50 is under 4.00 at Dipeptidyl peptidase 8, 4.85 against Dipeptidyl peptidase 2, 7.37 at Dipeptidyl peptidase 4 and under 4.00 against Dipeptidyl peptidase 9. In addition, in the data set listed under Homo sapiens, the Ratio IC50 is over 320.

With `Cc1cc(S(C)(=O)=O)ccc1-c1noc([C@@H](CC2CC2)[C@H](N)C(=O)N2CC[C@H](F)C2)n1`, the pIC50 at Dipeptidyl peptidase 8 was under 4.00; on Dipeptidyl peptidase 2, 5.53; on Dipeptidyl peptidase 4, 7.51; at Dipeptidyl peptidase 9 it was under 4.00.

Take `C[C@H](c1nc(-c2ccc(S(C)(=O)=O)cc2Cl)no1)[C@H](N)C(=O)N1CCCC1`: in [1], the bioavailability is 27%. Moreover, the pIC50 against Dipeptidyl peptidase 8 and on Dipeptidyl peptidase 9 was under 4.00 each time. In data set [2], this compound registered a clearance of 6 mL/min/kg. In data set [3], this compound had a half-life of 0.82 h.

Consider `C[C@H](c1nc(-c2ccc(S(C)(=O)=O)cc2)no1)[C@H](N)C(=O)N1CCCC1`, for which the pIC50 against Dipeptidyl peptidase 8 and at Dipeptidyl peptidase 9 was under 4.00 throughout.

For `C[C@H](c1nc(-c2ccc(OC(F)(F)F)cc2)no1)[C@H](N)C(=O)N1CCCC1`, the pIC50 was under 4.00 against Dipeptidyl peptidase 8, 5.28 at Dipeptidyl peptidase 2, 5.75 against Dipeptidyl peptidase 4 and under 4.00 at Dipeptidyl peptidase 9.

As for `C[C@H](c1nc(-c2ccccc2OC(F)(F)F)no1)[C@H](N)C(=O)N1CCCC1`, the pIC50 against Dipeptidyl peptidase 8 was under 4.00; on Dipeptidyl peptidase 2 it was 5.60; on Dipeptidyl peptidase 4, 4.91; against Dipeptidyl peptidase 9, under 4.00.

For the compound `CS(=O)(=O)c1ccc(-c2noc([C@@H](CCO)[C@H](N)C(=O)N3CC[C@H](F)C3)n2)c(Cl)c1`, the pIC50 against Dipeptidyl peptidase 8 and against Dipeptidyl peptidase 9 was under 4.00 in each case.

For the compound `C[C@H](c1nc(-c2ccc(NS(C)(=O)=O)cc2)no1)[C@H](N)C(=O)N1CCCC1`, the pIC50 against Dipeptidyl peptidase 8 is under 4.00; at Dipeptidyl peptidase 2, 5.27; against Dipeptidyl peptidase 4, 6.28; against Dipeptidyl peptidase 9, under 4.00.

In the case of `C[C@H](c1nc(-c2ccc(C(F)(F)F)cc2)no1)[C@H](N)C(=O)N1CCCC1`, the pIC50 against Dipeptidyl peptidase 8 was under 4.00; at Dipeptidyl peptidase 2, 5.22; on Dipeptidyl peptidase 4, 5.79; at Dipeptidyl peptidase 9 it was under 4.00.

`C[C@H](c1nc(-c2ccccc2Cl)no1)[C@H](N)C(=O)N1CCCC1`: the pIC50 is under 4.00 at Dipeptidyl peptidase 8, 5.66 at Dipeptidyl peptidase 2, 6.00 on Dipeptidyl peptidase 4 and under 4.00 against Dipeptidyl peptidase 9.

In the case of `CS(=O)(=O)c1ccc(-c2noc([C@@H](CC3CC3)[C@H](N)C(=O)N3CC[C@H](F)C3)n2)c(F)c1.O=C(O)C(F)(F)F`, the pIC50 is 4.23 in [4], under 4.00 on Dipeptidyl peptidase 8 and under 4.00 against Dipeptidyl peptidase 9. Besides, the bioavailability in data set [5] came out at 95%; in data set [1], 36%. In data set [2], this compound came in with a clearance of 18.7 mL/min/kg. Besides, the results for the half-life in [3] and in data set [6] were 1.3 h and 1.75 h, respectively.

Consider `C[C@H](c1nc(-c2ccc(F)cc2F)no1)[C@H](N)C(=O)N1CCCC1`, for which the pIC50 against Dipeptidyl peptidase 8 is under 4.00; against Dipeptidyl peptidase 2, 5.09; against Dipeptidyl peptidase 4, 5.34; at Dipeptidyl peptidase 9, under 4.00.

In the case of `C[C@H](c1noc(-c2ccc(Cl)cc2Cl)n1)[C@H](N)C(=O)N1CCCC1`, the pIC50 on Dipeptidyl peptidase 8 is under 4.00; against Dipeptidyl peptidase 2, 5.38; against Dipeptidyl peptidase 4, 5.92; on Dipeptidyl peptidase 9, under 4.00.

For the compound `C[C@H](c1nc(-c2ccc(NS(C)(=O)=O)cc2Cl)no1)[C@H](N)C(=O)N1CC[C@H](F)C1`, the pIC50 against Dipeptidyl peptidase 8 is under 4.00; against Dipeptidyl peptidase 2, 5.59; on Dipeptidyl peptidase 4 it was 7.72; against Dipeptidyl peptidase 9, under 4.00.

Regarding `C[C@H](c1nc(-c2ccccc2C(F)F)no1)[C@H](N)C(=O)N1CCCC1`, the pIC50 against Dipeptidyl peptidase 8 is under 4.00; on Dipeptidyl peptidase 2 it was 6.00; against Dipeptidyl peptidase 4 it was 5.74; on Dipeptidyl peptidase 9, under 4.00.

On to `C[C@H](c1nc(-c2ccc(NS(C)(=O)=O)cc2Cl)no1)[C@H](N)C(=O)N1CC[C@@H](F)C1`, for which the pIC50 on Dipeptidyl peptidase 8 is under 4.00; at Dipeptidyl peptidase 2, 5.77; at Dipeptidyl peptidase 4 it was 7.72; against Dipeptidyl peptidase 9 it was under 4.00.

For `C[C@H](c1nc(-c2cc(Cl)cc(Cl)c2)no1)[C@H](N)C(=O)N1CCCC1`, the pIC50 at Dipeptidyl peptidase 8 is under 4.00; against Dipeptidyl peptidase 2, 5.60; at Dipeptidyl peptidase 4 it was 5.13; at Dipeptidyl peptidase 9, under 4.00.

On to `C[C@H](c1nc(-c2ccc(S(=O)(=O)C(F)(F)F)cc2)no1)[C@H](N)C(=O)N1CCCC1`, for which the pIC50 on Dipeptidyl peptidase 8 is under 4.00; on Dipeptidyl peptidase 2 it was 4.61; at Dipeptidyl peptidase 4 it was 6.48; at Dipeptidyl peptidase 9, under 4.00.

With `C[C@H](c1n[nH]c(-c2ccc(Cl)cc2Cl)n1)[C@H](N)C(=O)N1CCCC1`, the negative logarithm of the IC50 (pIC50) on Dipeptidyl peptidase 8 is under 4.00; against Dipeptidyl peptidase 2, 5.27; against Dipeptidyl peptidase 4, 5.52; at Dipeptidyl peptidase 9 it was under 4.00.

For `CS(=O)(=O)c1ccc(-c2noc([C@@H](CC3CC3)[C@H](N)C(=O)N3CC[C@H](F)C3)n2)c(Cl)c1`, the pIC50 against Dipeptidyl peptidase 8 and against Dipeptidyl peptidase 9 was under 4.00 in each case.

For the compound `C[C@H](c1nnc(-c2ccc(Cl)cc2Cl)o1)[C@H](N)C(=O)N1CCCC1`, the pIC50 against Dipeptidyl peptidase 8 was under 4.00; on Dipeptidyl peptidase 2, 6.07; against Dipeptidyl peptidase 4 it was 6.25; on Dipeptidyl peptidase 9, under 4.00.

Regarding `C[C@H](c1nc(-c2ccc(Cl)cc2)no1)[C@H](N)C(=O)N1CCCC1`, the pIC50 on Dipeptidyl peptidase 8 is under 4.00; against Dipeptidyl peptidase 2, 5.42; against Dipeptidyl peptidase 4 it was 5.42; against Dipeptidyl peptidase 9 it was under 4.00.

For the compound `C[C@H](c1nc(-c2ccc(Br)cc2Cl)no1)[C@H](N)C(=O)N1CCCC1`, the pIC50 against Dipeptidyl peptidase 8 is under 4.00; on Dipeptidyl peptidase 2 it was 5.89; at Dipeptidyl peptidase 4, 6.80; against Dipeptidyl peptidase 9, under 4.00.

Take `C[C@H](c1nc(-c2ccccc2)no1)[C@H](N)C(=O)N1CCCC1`: the pIC50 on Dipeptidyl peptidase 8 is under 4.00; at Dipeptidyl peptidase 2 it was 5.24; at Dipeptidyl peptidase 4, 4.71; on Dipeptidyl peptidase 9, under 4.00.
